This note sets out measurements from patent publication US7790751B2, “Azinyl-3-sulfonylindazole derivatives as 5-hydroxytryptamine-6 ligands” (Wyeth LLC, priority 2005, dated 2010).

The target in data set [1] is human cloned 5-HT6 receptors (Homo sapiens, UniProt P50406). In words: Evaluation of 5-HT6 binding affinity of test compounds ([3H]-LSD displacement).
Chain of human cloned 5-HT6 receptors (P50406 whole entry): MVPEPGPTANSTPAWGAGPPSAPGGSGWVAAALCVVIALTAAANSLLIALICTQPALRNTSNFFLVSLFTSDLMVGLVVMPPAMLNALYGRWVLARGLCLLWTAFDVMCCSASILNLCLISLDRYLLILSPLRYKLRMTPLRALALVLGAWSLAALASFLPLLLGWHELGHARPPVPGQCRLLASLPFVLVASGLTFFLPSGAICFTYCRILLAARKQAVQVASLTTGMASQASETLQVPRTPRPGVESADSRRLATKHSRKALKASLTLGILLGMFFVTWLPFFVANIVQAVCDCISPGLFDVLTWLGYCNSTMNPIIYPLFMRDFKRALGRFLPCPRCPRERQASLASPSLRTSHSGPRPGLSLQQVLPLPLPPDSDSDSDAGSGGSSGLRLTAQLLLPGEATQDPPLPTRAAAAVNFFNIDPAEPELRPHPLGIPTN

Usually Ki stands for the dissociation constant of the complex between target and ligand, obtained from inhibition or displacement. A word on the melting point: it is the temperature, or range, at which the solid turns liquid. `O=S(=O)(c1cccc2ccccc12)c1n[nH]c2ccc(OCC3CCNCC3)cc12` [Example 27, 3-(1-naphthylsulfonyl)-5-(piperidin-4-ylmethoxy)-1H-indazole] came in with a melting point of 175 to 177 °C. This compound also gave an inhibitory constant (Ki) in data set [1] of 11 to 25 nM.
On the same counts, the results for `O=S(=O)(c1cccc2ccccc12)c1n[nH]c2ccc(OC3CCCNC3)cc12` (stereo not shown) [Example 29, 3-(1-Naphthylsulfonyl)-5-(piperidin-3-yloxy)-1H-indazole] are 178 to 180 °C and 0.01 to 10 nM.
